Patent US20250051338A1, “TYK2 DEGRADERS AND USES THEREOF” (Kymera Therapeutics, Inc., priority 2021, published 2025)

Legend:
Assay type in all cases: cell-based
TYK2 [1] = target: T1, TYK2 (Homo sapiens, UniProt P29597); assay: TYK2 degradation MSD assay in human PBMC cells; design: endogenous in cells; host or cells: human PBMC; conditions: 4 to 24 hours incubation, read-out: TYK2 MSD DC50 rating in human PBMC
Summary of the method: (§1)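 0.4 million cells/well; cpd 9-dose 1:3 titration, top 1–10 μM; 4–24 h, 37° C, 5% CO2; RIPA lysis; TYK2 capture/detection sandwich on MSD, SULFO-TAG anti-rabbit secondary; DC50 via 4-parameter fit.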

TYK2 [2] = target: T1, TYK2; assay: TYK2 degradation MSD assay in EBV-B cells; design: endogenous in cells; host or cells: EBV-B cells; conditions: 4 to 24 hours incubation, read-out: TYK2 MSD DC50 rating in EBV-B
Summary of the method: as §1

TYK2 [3] = target: T1, TYK2; assay: TYK2 degradation MSD assay in OCI-LY10 cells; design: endogenous in cells; host or cells: EBV-B cells; conditions: 4 to 24 hours incubation, read-out: TYK2 MSD DC50 rating in OCI-LY10
Summary of the method: as §1

T1 sequence (P29597 whole entry): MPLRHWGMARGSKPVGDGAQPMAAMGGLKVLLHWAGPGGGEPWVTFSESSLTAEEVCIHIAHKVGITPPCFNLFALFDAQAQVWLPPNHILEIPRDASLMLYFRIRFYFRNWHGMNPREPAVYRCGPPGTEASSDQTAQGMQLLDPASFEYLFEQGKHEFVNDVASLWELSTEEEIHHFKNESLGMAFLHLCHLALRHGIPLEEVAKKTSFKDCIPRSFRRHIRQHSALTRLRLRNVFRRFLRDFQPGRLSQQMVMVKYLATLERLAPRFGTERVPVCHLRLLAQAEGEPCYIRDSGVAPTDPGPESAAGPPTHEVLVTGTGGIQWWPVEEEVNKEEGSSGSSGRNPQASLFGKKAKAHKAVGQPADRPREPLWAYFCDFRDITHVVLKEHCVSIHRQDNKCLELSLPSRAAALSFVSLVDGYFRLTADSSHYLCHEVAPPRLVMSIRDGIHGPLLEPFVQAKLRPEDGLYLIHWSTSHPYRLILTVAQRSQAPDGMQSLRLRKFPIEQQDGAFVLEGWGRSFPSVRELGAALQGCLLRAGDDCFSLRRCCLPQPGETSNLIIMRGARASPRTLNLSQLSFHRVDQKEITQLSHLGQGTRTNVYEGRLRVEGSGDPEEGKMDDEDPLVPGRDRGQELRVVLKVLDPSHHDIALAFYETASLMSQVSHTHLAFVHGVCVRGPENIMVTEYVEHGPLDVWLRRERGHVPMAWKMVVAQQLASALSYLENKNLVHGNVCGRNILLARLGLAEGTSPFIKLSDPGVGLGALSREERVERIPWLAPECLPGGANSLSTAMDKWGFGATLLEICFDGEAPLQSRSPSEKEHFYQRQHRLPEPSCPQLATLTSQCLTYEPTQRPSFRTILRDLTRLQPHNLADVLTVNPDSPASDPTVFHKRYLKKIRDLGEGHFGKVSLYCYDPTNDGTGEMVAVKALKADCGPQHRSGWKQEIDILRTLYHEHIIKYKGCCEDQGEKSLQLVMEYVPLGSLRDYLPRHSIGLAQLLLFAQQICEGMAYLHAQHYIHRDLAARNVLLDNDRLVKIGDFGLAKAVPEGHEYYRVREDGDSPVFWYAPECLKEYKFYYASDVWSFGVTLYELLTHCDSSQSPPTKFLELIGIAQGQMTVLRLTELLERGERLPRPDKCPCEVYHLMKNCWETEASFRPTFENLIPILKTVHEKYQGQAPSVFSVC

Compound | DC50 (TYK2 [1]) [nM] | DC50 (TYK2 [2]) [nM] | DC50 (TYK2 [3]) [nM]
CNc1cc(Nc2cccn(-c3ccc(CN4CC5(C4)CN(c4ccc(-c6ccc7c(c6)n(C)c(=O)n7C6CCC(=O)NC6=O)cc4)C5)cn3)c2=O)nn2c(C(=O)N[C@@H]3C[C@@H]3F)cnc12 (stereo partly drawn) [Example K519] | > 100 | > 100 | < 1
CNc1cc(Nc2cccc(N3CCC(CN4CC5(CCN(c6cccc7c6n(C)c(=O)n7C6CCC(=O)NC6=O)CC5)C4)CC3)c2)nn2c(C(=O)N[C@@H]3C[C@@H]3F)cnc12 (stereo partly drawn) [Example K520] | > 100 | > 100 | < 1
Cn1c(=O)n(C2CCC(=O)NC2=O)c2ccc(N3CCN(C4CN(C5CCN(Cc6ccc(-c7cccc(Nc8ccc9ncc(C(=O)NC%10CC%10)n9n8)c7)nc6)CC5)C4)CC3)cc21 (stereo not drawn) [Example K524] | > 100 | > 100 | > 100
CNc1cc(N2CCc3c(-c4ccc(CN5CC(C6CCN(C(=O)c7ccc(Cl)c(N8CCC(=O)NC8=O)c7)CC6)C5)cn4)cccc32)nn2c(C(=O)N[C@@H]3C[C@@H]3F)cnc12 [Example K525] | > 100 | > 100 | < 1
CNc1cc(-c2ccc(C3CCN(CC4CCN(c5ccc(-c6ccc7c(c6)n(C)c(=O)n7C6CCC(=O)NC6=O)cc5)CC4)CC3)cc2)nn2c(C(=O)N[C@@H]3C[C@@H]3F)cnc12 (stereo partly drawn) [Example K530] | > 100 | > 100 | > 100
CNc1cc(Nc2cccnc2OC2CCN(CCN3CCN(c4ccc5c(c4)n(C)c(=O)n5C4CCC(=O)NC4=O)CC3)CC2)nn2c(C(=O)N[C@@H]3C[C@@H]3F)cnc12 (stereo partly drawn) [Example K531] | > 100 | > 100 | 1 to 10
CNc1cc(-c2cn(C)c3c(-c4ccc(CN5CCN(c6ccc(-c7ccc8c(c7)n(C)c(=O)n8C7CCC(=O)NC7=O)cc6)CC5)cc4)cccc23)nn2c(C(=O)N[C@@H]3C[C@@H]3F)cnc12 (stereo partly drawn) [Example K532] | > 100 | > 100 | > 100
CNc1cc(Nc2cccc(-c3ccc(CN4CCN(c5ccc(-c6ccc7c(c6)n(C)c(=O)n7C6CCC(=O)NC6=O)cc5)CC4)cn3)c2)nn2c(-c3cn(C(C)C)nn3)cnc12 (stereo not drawn) [Example K534] | > 100 | > 100 | 1 to 10
CCc1nn(-c2cccc(F)c2OC)c2cc(Nc3ccc(CN(C)C4CCN(c5cccc6c5n(C)c(=O)n6C5CCC(=O)NC5=O)CC4)cn3)ncc12 (stereo not drawn) [Example K537] | > 100 | > 100 | > 100
CNc1cc(Oc2ccn(C3CCN(CC4CCN(c5ccc(-c6ccc7c(c6)n(C)c(=O)n7C6CCC(=O)NC6=O)cc5)CC4)CC3)n2)nn2c(C(=O)N[C@@H]3C[C@@H]3F)cnc12 (stereo partly drawn) [Example K549] | > 100 | > 100 | > 100
CNc1cc(-c2ccc(C3CCN(CC4CCN(c5ccc(-c6ccc7c(c6)n(C)c(=O)n7C6CCC(=O)NC6=O)cc5)CC4)CC3)cc2)c2n3c(cnc13)C(=O)N(C1CC1)C2 (stereo not drawn) [Example K550] | > 100 | > 100 | > 100
CNc1cc(N2CCc3c(N4CCC(CN5CCN(c6ccc(-c7ccc8c(c7)n(C)c(=O)n8C7CCC(=O)NC7=O)cc6)CC5)CC4)cccc32)nn2c(C(=O)N[C@@H]3C[C@@H]3F)cnc12 (stereo partly drawn) [Example K551] | > 100 | 1 to 10 | > 100
O=C1CCN(c2cc(C(=O)N3CCC4(CC3)CN(Cc3ccc(-c5cccc6c5CCN6c5ccc6ncc(C(=O)NC7CC7)n6n5)nc3)C4)ccc2Cl)C(=O)N1 [Example K554] | > 100 | > 100 | > 100
CC#Cc1nn(-c2cccc(F)c2OC)c2cc(Nc3ccc(CN(C)C4CCN(c5cccc6c5n(C)c(=O)n6C5CCC(=O)NC5=O)CC4)cn3)ncc12 (stereo not drawn) [Example K558] | > 100 | > 100 | > 100
CNc1cc(N2CCc3c(-c4ccc(CN5CCC(N6CCN(C(=O)c7ccc(Cl)c(N8CCC(=O)NC8=O)c7)CC6)CC5)cn4)cccc32)nn2c(C(=O)N[C@@H]3C[C@@H]3F)cnc12 [Example K559] | > 100 | > 100 | 1 to 10
CNc1cc(Nc2cccn(-c3ccc(C(=O)NCCCCc4cncc(N5CCC[C@H](C(=O)Nc6ccc(=O)n(CC(=O)O)c6)C5)c4)cn3)c2=O)nn2c(C(=O)N[C@@H]3C[C@@H]3F)cnc12 [Example K561] | > 100 | > 100 | > 100
CNc1cc(N2CCc3c(-c4ccc(CN5CCN([C@H]6CC[C@H](c7ccc(-c8ccc9c(c8)n(C)c(=O)n9C8CCC(=O)NC8=O)cc7)CC6)CC5)cn4)cccc32)nn2c(C(=O)N[C@@H]3CC3F)cnc12 (stereo partly drawn) [Example K566] | > 100 | > 100 | 1 to 10
CNc1cc(N2CCc3c(N4CCC(CC5CC6(CCN(C(=O)c7ccc(Cl)c(N8CCC(=O)NC8=O)c7)CC6)C5)CC4)cccc32)nn2c(C(=O)N[C@@H]3C[C@@H]3F)cnc12 [Example K568] | > 100 | > 100 | 1 to 10
CNc1cc(Nc2cccn(-c3ccc(C(=O)NCCCCCCCCc4cncc(N5CCC[C@H](C(=O)Nc6ccc(=O)n(CC(=O)O)c6)C5)c4)cn3)c2=O)nn2c(C(=O)N[C@@H]3C[C@@H]3F)cnc12 [Example K571] | > 100 | > 100 | > 100
CNc1cc(N2CCc3c(N4CCC(CN5CC6(C5)CN(c5ccc(-c7ccc8c(c7)n(C)c(=O)n8C7CCC(=O)NC7=O)cc5)C6)CC4)cccc32)nn2c(C(=O)N[C@@H]3C[C@@H]3F)cnc12 (stereo partly drawn) [Example K573] | > 100 | > 100 | 1 to 10
CNc1cc(N2CCc3c(-c4ccc(CN5CC6(C5)CN(c5ccc(-c7ccc8c(c7)n(C)c(=O)n8C7CCC(=O)NC7=O)cc5)C6)cn4)cccc32)nn2c(C(=O)N[C@@H]3C[C@@H]3F)cnc12 (stereo partly drawn) [Example K574] | > 100 | > 100 | 1 to 10

More lines, now with the values ahead:

DC50 (TYK2 [1]) [nM] | DC50 (TYK2 [2]) [nM] | DC50 (TYK2 [3]) [nM] | Compound
> 100 | > 100 | < 1 | CNc1cc(Nc2cccc(-c3ccc(CN4CC5(C4)CN(c4ccc(-c6ccc7c(c6)n(C)c(=O)n7C6CCC(=O)NC6=O)cc4)C5)cn3)c2)nn2c(C(=O)N[C@@H]3C[C@@H]3F)cnc12 (stereo partly drawn) [Example K522]
> 100 | > 100 | 1 to 10 | CNc1cc(Nc2cccc(-c3ccc(CN4CCN(c5ccc6c(c5)n(C)c(=O)n6C5CCC(=O)NC5=O)CC4)cn3)c2)nn2c(C(=O)N[C@@H]3C[C@@H]3F)cnc12 (stereo partly drawn) [Example K523]
> 100 | > 100 | 1 to 10 | CCNC(=O)c1cnc2c(NC)cc(Nc3cccc(-c4ccc(CN5CCN(c6ccc(-c7ccc8c(c7)n(C)c(=O)n8C7CCC(=O)NC7=O)cc6)CC5)cn4)c3OC)nn12 (stereo not drawn) [Example K526]
> 100 | > 100 | 1 to 10 | CNC(=O)c1cnc2c(NC)cc(Nc3cccc(-c4ccc(CN5CCN(c6ccc(-c7ccc8c(c7)n(C)c(=O)n8C7CCC(=O)NC7=O)cc6)CC5)cn4)c3OC)nn12 (stereo not drawn) [Example K527]
> 100 | > 100 | 1 to 10 | CNc1cc(Nc2cccc(-c3ccc(CN4CCN(c5ccc(-c6ccc7c(c6)n(C)c(=O)n7C6CCC(=O)NC6=O)cc5)CC4)cn3)c2OC)nn2c(C(=O)NC(C)C)cnc12 (stereo not drawn) [Example K528]
> 100 | > 100 | 1 to 10 | CNc1cc(-c2ccc(-c3ccc(CN4CCN(c5ccc(-c6ccc7c(c6)n(C)c(=O)n7C6CCC(=O)NC6=O)cc5)CC4)cn3)cc2)nn2c(C(=O)N[C@@H]3C[C@@H]3F)cnc12 (stereo partly drawn) [Example K529]
> 100 | > 100 | 1 to 10 | CNc1cc(Nc2cccc(-c3ccc(CN4CCN(c5ccc(-c6ccc7c(c6)n(C)c(=O)n7C6CCC(=O)NC6=O)cc5)CC4)cn3)c2OC)nn2c(C(=O)NC3CC3C)cnc12 (stereo not drawn) [Example K542]
> 100 | > 100 | < 1 | Cn1c(=O)n(C2CCC(=O)NC2=O)c2ccc(-c3ccc(N4CCN(Cc5ccc(-c6cccc(Nc7nn8c(C(=O)N[C@@H]9C[C@@H]9F)cnc8c8c7OCCN8)c6)nc5)CC4)cc3)cc21 (stereo partly drawn) [Example K557]
> 100 | > 100 | < 1 | CNc1cc(Nc2cccc(-c3ccc(CN4CCN(c5ccc(-c6ccc7c(c6)n(C)c(=O)n7C6CCC(=O)NC6=O)cc5)CC4)cn3)c2F)nn2c(C(=O)N[C@@H]3C[C@@H]3F)cnc12 (stereo partly drawn) [Example K563]
> 100 | > 100 | < 1 | CNc1cc(Nc2cccc(CN3CCN(c4ccc(-c5ccc6c(c5)n(C)c(=O)n6C5CCC(=O)NC5=O)cc4)CC3)c2Cl)nn2c(C(=O)N[C@@H]3C[C@@H]3F)cnc12 (stereo partly drawn) [Example K564]
> 100 | > 100 | > 100 | CNc1cc(-c2ccc(CN3CCN(c4ccc(-c5ccc6c(c5)n(C)c(=O)n6C5CCC(=O)NC5=O)cc4)CC3)cc2)nn2c(C(=O)N[C@@H]3C[C@@H]3F)cnc12 (stereo partly drawn) [Example K565]
> 100 | > 100 | < 1 | CNc1cc(Nc2cccc(-c3ccc(CN4CCN(C5CCC(c6ccc(-c7ccc8c(c7)n(C)c(=O)n8C7CCC(=O)NC7=O)cc6)CC5)CC4)cn3)c2OC)nn2c(C(=O)N[C@@H]3C[C@@H]3F)cnc12 (stereo partly drawn) [Example K567]
> 100 | > 100 | > 100 | CNc1cc(Nc2cccc(CN3CCN(c4ccc(-c5ccc6c(c5)n(C)c(=O)n6C5CCC(=O)NC5=O)cc4)CC3)c2OC)nn2c(C(=O)N[C@@H]3C[C@@H]3F)cnc12 (stereo partly drawn) [Example K576]
